# Legend:
# Format in all cases: in vivo
# [1] = test system: early watergrass (Echinochloa oryzicola Vasing); test: Test Example 1: herbicidal effect by soil application to paddy field; conditions: paddy field soil application; active ingredient 1,000 g per 1 hectare; wettable powder added dropwise to water surface the day after sowing; examined on the 21st day after application
# Method in brief: (§1)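 Under greenhouse conditions, seeds sown on puddled paddy soil in 100 cm2 pots under 3 cm of standing water received the test compound; injury was assessed with a standard scoring scheme three weeks (day 21) after treatment.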
# [2] = test system: Japanese bulrush (Scirpus juncoides Roxb.); test: as above; conditions: paddy field soil application; active ingredient 1,000 g per 1 hectare; wettable powder added dropwise to water surface the day after sowing; examined on the 21st day after application
# Method in brief: as §1
# [3] = test system: heartshape false pickerelweed (Monochoria vaginalis (Burm.f.) C.Presl); test: as above; conditions: paddy field soil application; active ingredient 1,000 g per 1 hectare; wettable powder added dropwise to water surface the day after sowing; examined on the 21st day after application
# Method in brief: as §1
# [4] = test system: slender amaranth (Amaranthus viridis L.); test: Test Example 3: herbicidal effect by application to upland field (foliage treatment); conditions: foliage treatment, 1,000 g active ingredient per 1 hectare, 14th day after application, greenhouse
# Method in brief: (§2)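 Read-out is a visual herbicidal-effect grade on a standard scale, taken on the 14th day after a single foliar spray. The spray was wettable powder diluted in water, 1,000 g active ingredient/ha at 1,000 L/ha, applied to greenhouse plants two weeks after sowing.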
# [5] = test system: barnyardgrass (Echinochloa crus-galli (L.) P. Beauv. var. crus-galli); test: as above; conditions: foliage treatment, 1,000 g active ingredient per 1 hectare, 14th day after application, greenhouse
# Method in brief: as §2
# [6] = test system: velvetleaf (Abutilon theophrasti medicus); test: as above; conditions: foliage treatment, 1,000 g active ingredient per 1 hectare, 14th day after application, greenhouse
# Method in brief: as §2
# [7] = test system: green foxtail (Setaria viridis (L.) P. Beauv.); test: as above; conditions: foliage treatment, 1,000 g active ingredient per 1 hectare, 14th day after application, greenhouse
# Method in brief: as §2
# [8] = test system: slender amaranth (Amaranthus viridis L.); test: Test Example 2: herbicidal effect by soil application to upland field; conditions: soil surface spray, upland field soil, 1,000 g active ingredient per hectare, 21st day after application
# Method in brief: (§3)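 Greenhouse pot assay with field soil. Freshly sown seeds were covered with soil, then the surface was sprayed with diluted wettable powder: 1,000 g a.i./ha, 1,000 L/ha. Herbicidal effect scored at day 21 by standard criteria.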
# [9] = test system: barnyardgrass (Echinochloa crus-galli (L.) P. Beauv. var. crus-galli); test: as above; conditions: soil surface spray, upland field soil, 1,000 g active ingredient per hectare, 21st day after application
# Method in brief: as §3
# [10] = test system: velvetleaf (Abutilon theophrasti medicus); test: as above; conditions: soil surface spray, upland field soil, 1,000 g active ingredient per hectare, 21st day after application
# Method in brief: as §3
# [11] = test system: green foxtail (Setaria viridis (L.) P. Beauv.); test: as above; conditions: soil surface spray, upland field soil, 1,000 g active ingredient per hectare, 21st day after application
# Method in brief: as §3
compound,measurement,setting,value
CON=CCn1c(C(F)(F)F)ccc(C(=O)C2=C(O)CCCC2=O)c1=O [I-133],"herbicidal effect, Echinochloa oryzicola Vasing",[1],5 (90% or more of herbicidal effect and crop phytotoxicity)
same,"herbicidal effect, Scirpus juncoides Roxb.",[2],5 (90% or more of herbicidal effect and crop phytotoxicity)
same,"herbicidal effect, Monochoria vaginalis (Burm. f.) C. Presl",[3],5 (90% or more of herbicidal effect and crop phytotoxicity)
same,"herbicidal effect, Slender Amaranth",[4],5 (90% or more of herbicidal effect and crop phytotoxicity)
same,"herbicidal effect, Barnyardgrass",[5],5 (90% or more of herbicidal effect and crop phytotoxicity)
same,"herbicidal effect, Velvetleaf",[6],5 (90% or more of herbicidal effect and crop phytotoxicity)
same,"herbicidal effect, Green Foxtail",[7],4 (70 to less than 90% of herbicidal effect and crop phytotoxicity)
same,"herbicidal effect (index), Slender Amaranth",[8],5 (90% or more of herbicidal effect and crop phytotoxicity)
same,"herbicidal effect (index), Barnyardgrass",[9],5 (90% or more of herbicidal effect and crop phytotoxicity)
same,"herbicidal effect (index), Velvetleaf",[10],5 (90% or more of herbicidal effect and crop phytotoxicity)
same,"herbicidal effect (index), Green Foxtail",[11],4 (70 to less than 90% of herbicidal effect and crop phytotoxicity)
COC(Cn1c(C(F)(F)F)ccc(C(=O)C2=C(O)CCCC2=O)c1=O)OC [I-137],"herbicidal effect, Echinochloa oryzicola Vasing",[1],5 (90% or more of herbicidal effect and crop phytotoxicity)
same,"herbicidal effect, Scirpus juncoides Roxb.",[2],5 (90% or more of herbicidal effect and crop phytotoxicity)
same,"herbicidal effect, Monochoria vaginalis (Burm. f.) C. Presl",[3],5 (90% or more of herbicidal effect and crop phytotoxicity)
same,"herbicidal effect, Slender Amaranth",[4],5 (90% or more of herbicidal effect and crop phytotoxicity)
same,"herbicidal effect, Barnyardgrass",[5],5 (90% or more of herbicidal effect and crop phytotoxicity)
same,"herbicidal effect, Velvetleaf",[6],5 (90% or more of herbicidal effect and crop phytotoxicity)
same,"herbicidal effect, Green Foxtail",[7],4 (70 to less than 90% of herbicidal effect and crop phytotoxicity)
same,"herbicidal effect (index), Slender Amaranth",[8],5 (90% or more of herbicidal effect and crop phytotoxicity)
same,"herbicidal effect (index), Barnyardgrass",[9],5 (90% or more of herbicidal effect and crop phytotoxicity)
same,"herbicidal effect (index), Velvetleaf",[10],5 (90% or more of herbicidal effect and crop phytotoxicity)
same,"herbicidal effect (index), Green Foxtail",[11],5 (90% or more of herbicidal effect and crop phytotoxicity)
Cc1cc(-n2c(C(F)(F)F)ccc(C(=O)C3=C(O)CCCC3=O)c2=O)no1 [I-142],"herbicidal effect, Echinochloa oryzicola Vasing",[1],5 (90% or more of herbicidal effect and crop phytotoxicity)
same,"herbicidal effect, Scirpus juncoides Roxb.",[2],5 (90% or more of herbicidal effect and crop phytotoxicity)
same,"herbicidal effect, Monochoria vaginalis (Burm. f.) C. Presl",[3],5 (90% or more of herbicidal effect and crop phytotoxicity)
same,"herbicidal effect, Slender Amaranth",[4],5 (90% or more of herbicidal effect and crop phytotoxicity)
same,"herbicidal effect, Barnyardgrass",[5],5 (90% or more of herbicidal effect and crop phytotoxicity)
same,"herbicidal effect, Velvetleaf",[6],5 (90% or more of herbicidal effect and crop phytotoxicity)
same,"herbicidal effect, Green Foxtail",[7],5 (90% or more of herbicidal effect and crop phytotoxicity)
same,"herbicidal effect (index), Slender Amaranth",[8],5 (90% or more of herbicidal effect and crop phytotoxicity)
same,"herbicidal effect (index), Barnyardgrass",[9],5 (90% or more of herbicidal effect and crop phytotoxicity)
same,"herbicidal effect (index), Velvetleaf",[10],5 (90% or more of herbicidal effect and crop phytotoxicity)
same,"herbicidal effect (index), Green Foxtail",[11],5 (90% or more of herbicidal effect and crop phytotoxicity)
O=C1CCCC(O)=C1C(=O)c1ccc(C(F)(F)F)n(-c2ccsc2)c1=O [I-148],"herbicidal effect, Echinochloa oryzicola Vasing",[1],5 (90% or more of herbicidal effect and crop phytotoxicity)
same,"herbicidal effect, Scirpus juncoides Roxb.",[2],5 (90% or more of herbicidal effect and crop phytotoxicity)
same,"herbicidal effect, Monochoria vaginalis (Burm. f.) C. Presl",[3],5 (90% or more of herbicidal effect and crop phytotoxicity)
same,"herbicidal effect, Slender Amaranth",[4],5 (90% or more of herbicidal effect and crop phytotoxicity)
same,"herbicidal effect, Barnyardgrass",[5],5 (90% or more of herbicidal effect and crop phytotoxicity)
same,"herbicidal effect, Velvetleaf",[6],5 (90% or more of herbicidal effect and crop phytotoxicity)
same,"herbicidal effect, Green Foxtail",[7],5 (90% or more of herbicidal effect and crop phytotoxicity)
same,"herbicidal effect (index), Slender Amaranth",[8],5 (90% or more of herbicidal effect and crop phytotoxicity)
same,"herbicidal effect (index), Barnyardgrass",[9],5 (90% or more of herbicidal effect and crop phytotoxicity)
same,"herbicidal effect (index), Velvetleaf",[10],5 (90% or more of herbicidal effect and crop phytotoxicity)
same,"herbicidal effect (index), Green Foxtail",[11],5 (90% or more of herbicidal effect and crop phytotoxicity)
Cc1ccsc1-n1c(C(F)(F)F)ccc(C(=O)C2=C(O)CCCC2=O)c1=O [I-149],"herbicidal effect, Echinochloa oryzicola Vasing",[1],5 (90% or more of herbicidal effect and crop phytotoxicity)
same,"herbicidal effect, Scirpus juncoides Roxb.",[2],5 (90% or more of herbicidal effect and crop phytotoxicity)
same,"herbicidal effect, Monochoria vaginalis (Burm. f.) C. Presl",[3],5 (90% or more of herbicidal effect and crop phytotoxicity)
same,"herbicidal effect, Slender Amaranth",[4],5 (90% or more of herbicidal effect and crop phytotoxicity)
same,"herbicidal effect, Barnyardgrass",[5],5 (90% or more of herbicidal effect and crop phytotoxicity)
same,"herbicidal effect, Velvetleaf",[6],5 (90% or more of herbicidal effect and crop phytotoxicity)
same,"herbicidal effect, Green Foxtail",[7],5 (90% or more of herbicidal effect and crop phytotoxicity)
same,"herbicidal effect (index), Slender Amaranth",[8],5 (90% or more of herbicidal effect and crop phytotoxicity)
same,"herbicidal effect (index), Barnyardgrass",[9],5 (90% or more of herbicidal effect and crop phytotoxicity)
same,"herbicidal effect (index), Velvetleaf",[10],5 (90% or more of herbicidal effect and crop phytotoxicity)
same,"herbicidal effect (index), Green Foxtail",[11],5 (90% or more of herbicidal effect and crop phytotoxicity)
O=C1CCCC(O)=C1C(=O)c1ccc(C(F)(F)F)n(-c2ccccn2)c1=O [I-150],"herbicidal effect, Echinochloa oryzicola Vasing",[1],5 (90% or more of herbicidal effect and crop phytotoxicity)
same,"herbicidal effect, Scirpus juncoides Roxb.",[2],5 (90% or more of herbicidal effect and crop phytotoxicity)
same,"herbicidal effect, Monochoria vaginalis (Burm. f.) C. Presl",[3],5 (90% or more of herbicidal effect and crop phytotoxicity)
same,"herbicidal effect, Slender Amaranth",[4],5 (90% or more of herbicidal effect and crop phytotoxicity)
same,"herbicidal effect, Barnyardgrass",[5],5 (90% or more of herbicidal effect and crop phytotoxicity)
same,"herbicidal effect, Velvetleaf",[6],5 (90% or more of herbicidal effect and crop phytotoxicity)
same,"herbicidal effect, Green Foxtail",[7],5 (90% or more of herbicidal effect and crop phytotoxicity)
same,"herbicidal effect (index), Slender Amaranth",[8],5 (90% or more of herbicidal effect and crop phytotoxicity)
same,"herbicidal effect (index), Barnyardgrass",[9],5 (90% or more of herbicidal effect and crop phytotoxicity)
same,"herbicidal effect (index), Velvetleaf",[10],5 (90% or more of herbicidal effect and crop phytotoxicity)
same,"herbicidal effect (index), Green Foxtail",[11],5 (90% or more of herbicidal effect and crop phytotoxicity)
COc1cncc(-n2c(C(F)(F)F)ccc(C(=O)C3=C(O)CCCC3=O)c2=O)c1 [I-151],"herbicidal effect, Echinochloa oryzicola Vasing",[1],5 (90% or more of herbicidal effect and crop phytotoxicity)
same,"herbicidal effect, Scirpus juncoides Roxb.",[2],5 (90% or more of herbicidal effect and crop phytotoxicity)
same,"herbicidal effect, Monochoria vaginalis (Burm. f.) C. Presl",[3],5 (90% or more of herbicidal effect and crop phytotoxicity)
same,"herbicidal effect, Slender Amaranth",[4],5 (90% or more of herbicidal effect and crop phytotoxicity)
same,"herbicidal effect, Barnyardgrass",[5],5 (90% or more of herbicidal effect and crop phytotoxicity)
same,"herbicidal effect, Velvetleaf",[6],5 (90% or more of herbicidal effect and crop phytotoxicity)
same,"herbicidal effect, Green Foxtail",[7],5 (90% or more of herbicidal effect and crop phytotoxicity)
same,"herbicidal effect (index), Slender Amaranth",[8],5 (90% or more of herbicidal effect and crop phytotoxicity)
same,"herbicidal effect (index), Barnyardgrass",[9],5 (90% or more of herbicidal effect and crop phytotoxicity)
same,"herbicidal effect (index), Velvetleaf",[10],5 (90% or more of herbicidal effect and crop phytotoxicity)
same,"herbicidal effect (index), Green Foxtail",[11],5 (90% or more of herbicidal effect and crop phytotoxicity)
